# Columns and labels:
# [1] = Cytotoxicity against human HCE-T cells assessed as inhibition of cell growth; assay type: toxicity, cell-based
# [2] = test system: BXPC-3; assay: cells; conditions: Homo sapiens, BXPC-3, 72 h
# Description: Antiproliferative activity against SMAD4/ME2-null human BXPC-3 cells assessed as inhibition of cell growth incubated for 72 hrs by CellTiter-Glo luminescence assay
# [3] = Selectivity for SMAD4/ME2-null human BXPC-3 cells over human HCE-T cells
# [4] = test system: BXPC-3; assay: cells; conditions: Homo sapiens, BXPC-3, 72 h, read-out: INH
# Description: Antiproliferative activity against SMAD4/ME2-null human BXPC-3 cells assessed as inhibition of cell growth at 10 uM incubated for 72 hrs by CellTiter-Glo luminescence assay
# [5] = molecular target: T1, NADP-dependent malic enzyme (Homo sapiens, UniProt P48163); assay: (§1) Inhibition of His-tagged human recombinant full length ME1 using L-malate and beta-NADP+ as substrate preincubated with enzyme for 5 mins followed by beta-NADP+ challenge and incubated under shaking for 5 mins followed by incubation for 2 hrs without shaking by resorufin dye based fluorescence analysis
# T1 sequence (P48163 whole entry): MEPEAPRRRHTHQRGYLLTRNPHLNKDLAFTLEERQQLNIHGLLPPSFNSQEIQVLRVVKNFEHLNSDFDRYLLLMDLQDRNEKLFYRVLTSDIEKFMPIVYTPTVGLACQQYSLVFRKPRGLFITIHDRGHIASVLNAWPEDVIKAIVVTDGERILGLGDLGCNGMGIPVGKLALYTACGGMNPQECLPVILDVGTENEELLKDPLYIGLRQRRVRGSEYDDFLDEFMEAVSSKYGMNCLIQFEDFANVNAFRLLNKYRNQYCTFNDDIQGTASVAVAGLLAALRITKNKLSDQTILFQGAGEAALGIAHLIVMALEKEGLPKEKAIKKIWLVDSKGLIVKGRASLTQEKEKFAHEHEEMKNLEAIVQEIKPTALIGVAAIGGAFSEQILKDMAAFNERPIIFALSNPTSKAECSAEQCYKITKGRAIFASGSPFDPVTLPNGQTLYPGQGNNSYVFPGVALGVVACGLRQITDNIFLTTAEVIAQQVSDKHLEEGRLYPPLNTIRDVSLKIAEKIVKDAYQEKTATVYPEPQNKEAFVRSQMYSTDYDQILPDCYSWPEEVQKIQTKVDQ
# [6] = molecular target: T2, NADP-dependent malic enzyme, mitochondrial (Homo sapiens, UniProt Q16798)
# T2 sequence (Q16798 whole entry): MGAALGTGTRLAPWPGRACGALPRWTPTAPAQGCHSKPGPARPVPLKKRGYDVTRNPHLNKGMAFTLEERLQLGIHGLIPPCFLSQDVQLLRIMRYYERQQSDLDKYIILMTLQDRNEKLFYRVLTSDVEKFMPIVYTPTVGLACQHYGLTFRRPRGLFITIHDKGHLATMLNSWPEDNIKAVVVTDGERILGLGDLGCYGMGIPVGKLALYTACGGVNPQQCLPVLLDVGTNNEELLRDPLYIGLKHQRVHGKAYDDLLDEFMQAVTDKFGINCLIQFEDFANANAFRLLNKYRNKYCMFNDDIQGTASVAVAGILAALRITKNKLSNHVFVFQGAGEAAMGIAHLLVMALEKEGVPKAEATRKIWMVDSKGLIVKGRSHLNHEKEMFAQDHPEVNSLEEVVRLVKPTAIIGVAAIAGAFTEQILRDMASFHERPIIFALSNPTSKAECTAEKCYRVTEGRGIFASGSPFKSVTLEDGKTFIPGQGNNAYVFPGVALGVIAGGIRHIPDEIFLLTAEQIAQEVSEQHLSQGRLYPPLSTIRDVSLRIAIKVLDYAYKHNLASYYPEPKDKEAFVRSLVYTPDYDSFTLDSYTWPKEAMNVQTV
# Description: (§2) Inhibition of His-tagged human recombinant ME3 (26 to 604 residues) using L-malate and beta-NADP+ as substrate preincubated with enzyme for 5 mins followed by beta-NADP+ challenge and incubated under shaking for 5 mins followed by incubation for 3 hrs without shaking by resorufin dye based fluorescence analysis
# [7] = molecular target: NAD-dependent malic enzyme, mitochondrial (Homo sapiens, UniProt P23368); assay: as §1, with “ME2” for “ME1”, “beta-NAD+” for “beta-NADP+”
# [8] = Lipophilicity, log P of the compound; assay type: physicochemical; conditions: octanol/water
# [9] = molecular target: T3, NADP-dependent malic enzyme, mitochondrial (Homo sapiens) (UniProt Q16798); conditions: BXPC-3, Lysates, dose 100.0 µM, time 2.0 hrs
# T3 sequence (whole entry): T2 sequence (Q16798 whole entry)
# [10] = test system: HUVEC; assay: Cytotoxicity against human HUVEC cells assessed as inhibition of cell growth; assay type: toxicity, cell-based
# [11] = molecular target: T3, NADP-dependent malic enzyme, mitochondrial (Homo sapiens); conditions: BXPC-3, dose 100.0 µM, time 24.0 hrs
# [12] = molecular target: T3, NADP-dependent malic enzyme, mitochondrial (Homo sapiens); conditions: dose 0.1 µM, time 190.0 min
# [13] = test system: BXPC-3; assay: Antiproliferative activity against SMAD4/ME2-null human BXPC-3 cells assessed as inhibition of cell growth at 1 uM incubated for 72 hrs by CellTiter-Glo luminescence assay; assay type: functional
# [14] = molecular target: T2, NADP-dependent malic enzyme, mitochondrial; remark: listed apart in the source
# Description: as §2
# Sequence of NAD-dependent malic enzyme, mitochondrial (P23368 whole entry): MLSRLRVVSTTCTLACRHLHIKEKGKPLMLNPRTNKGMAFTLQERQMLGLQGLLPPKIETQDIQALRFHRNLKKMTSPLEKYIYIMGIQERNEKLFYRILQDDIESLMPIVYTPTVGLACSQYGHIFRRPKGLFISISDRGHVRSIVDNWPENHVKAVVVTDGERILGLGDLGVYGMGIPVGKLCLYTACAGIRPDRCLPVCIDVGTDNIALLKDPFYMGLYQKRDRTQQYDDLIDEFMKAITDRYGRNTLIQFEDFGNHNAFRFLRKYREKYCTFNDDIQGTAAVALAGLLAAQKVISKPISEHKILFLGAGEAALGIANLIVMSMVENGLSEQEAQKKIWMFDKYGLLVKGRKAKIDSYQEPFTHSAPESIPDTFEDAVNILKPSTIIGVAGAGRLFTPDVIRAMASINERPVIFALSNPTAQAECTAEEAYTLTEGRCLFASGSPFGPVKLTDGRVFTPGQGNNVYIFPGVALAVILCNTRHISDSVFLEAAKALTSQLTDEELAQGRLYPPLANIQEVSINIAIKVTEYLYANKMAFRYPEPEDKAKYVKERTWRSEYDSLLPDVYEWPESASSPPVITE
IC50 [2],IC50 ([5]; read-out: IC50),IC50 [6],IC50 ([7]; read-out: IC50),SMILES,Selectivity ratio [3],inhibition at 10 µM [4],also measured
5400 nM,1500 nM,360 nM,2800 nM,CC(C)(CC(=O)N1CCN(c2ccc(O)cn2)CC1)c1ccc(Cl)cc1,5,97%,IC50 [1]: > 30000 nM
–,420 nM,60 nM,350 nM,CCCCOc1ccc(CCC(=O)N2CCN(c3ccc(O)cc3)CC2)cc1,5,29%,–
3500 nM,2370 nM,150 nM,1370 nM,CC(C)(CC(=O)N1CCN(c2ccc(O)cn2)CC1)c1ccccc1,5,99%,IC50 [1]: > 30000 nM; logP [8]: 3.41
–,10300 nM,5600 nM,2800 nM,O=C(O)c1cc2ccccc2c(Cc2cc3ccccc3c(C(=O)O)c2O)c1O,–,–,–
–,–,130 nM,–,O=C(Nc1ccccc1)C1CCN(c2ccc(O)cc2)CC1,–,–,–
–,210 nM,330 nM,410 nM,O=C(Cc1ccc(C(F)(F)F)cc1)N1CCN(c2ccc(O)cc2)CC1,5,39%,–
–,170 nM,80 nM,230 nM,O=C(/C=C/c1ccccc1)N1CCN(c2ccc(O)cc2)CC1,5,29%,–
5200 nM,150 nM,120 nM,270 nM,CC(C)(CC(=O)N1CCN(c2ccc(O)cc2)CC1)c1ccccc1,5,85%,IC50 [1]: > 30000 nM; Activity [10]: Non-Toxic
–,1740 nM,410 nM,1660 nM,O=C(CCc1ccc(F)cc1)N1CCN(c2ccc(O)cn2)CC1,5,48%,–
–,–,70 nM,–,O=C(Cc1ccccc1)NC1CCN(c2ccc(O)cc2)CC1,–,–,–
6300 nM,1020 nM,140 nM,1590 nM,O=C(CCc1ccc(Cl)cc1)N1CCN(c2ccc(O)cn2)CC1,5,71%,IC50 [1]: > 30000 nM
–,1600 nM,200 nM,980 nM,O=C(Cc1ccccc1)N1CCN(c2ccc(O)cn2)CC1,–,–,–
15000 nM,1310 nM,390 nM,3900 nM,CCCCOc1ccc(CCC(=O)N2CCN(c3ccc(O)cn3)CC2)cc1,5,7%,–
–,220 nM,21000 nM,200 nM,O=C(Nc1nnn[nH]1)C1c2ccccc2OC2C=CC=CC21 (stereo unspecified),–,–,–
–,1900 nM,470 nM,2500 nM,COc1ccc(CCC(=O)N2CCN(c3ccc(O)cn3)CC2)cc1,5,13%,–
–,3500 nM,580 nM,2600 nM,COCCOc1ccc(CCC(=O)N2CCN(c3ccc(O)cn3)CC2)cc1,5,3%,–

# The next lines start with the compound.
SMILES,IC50 [2],IC50 ([5]; read-out: IC50),IC50 [6],IC50 ([7]; read-out: IC50),Selectivity ratio [3],inhibition at 10 µM [4],also measured
O=C(CCc1ccccc1)N1CCN(c2ccc(F)cn2)CC1,> 30000 nM,–,–,–,–,0%,–
O=C(Cc1ccc(Cl)cc1)N1CCN(c2ccc(O)cc2)CC1,5700 nM,150 nM,130 nM,150 nM,5,80%,–
O=C(Cc1ccccc1)N1CCN(c2ccc(O)cc2)CC1,6000 nM,180 nM,100 nM,190 nM,5,80%,–
O=C(CN1CCN(c2ccc(O)cc2)CC1)Nc1ccccc1,–,340 nM,110 nM,360 nM,5,18%,–
O=C(CCc1ccccc1)N1CCN(c2ccc(O)cn2)CC1,5100 nM,1500 nM,230 nM,1720 nM,5,90%,IC50 [1]: > 30000 nM; ΔTm [9]: 7 °C; Activity [10]: Non-Toxic; ΔTm [11]: 4.9 °C
Oc1ccc(N2CCNCC2)nc1,–,–,–,–,–,12%,inhibition [12]: 0%; inhibition at 1 µM [13]: 2%
CC(C)(CC(=O)N1CCN(c2ccc(O)cn2)CC1)c1ccc(F)cc1,5900 nM,1300 nM,310 nM,1110 nM,5,100%,IC50 [1]: > 30000 nM
COc1ccc(N2CCN(C(=O)CCc3ccccc3)CC2)nc1,–,–,–,–,–,13%,–
O=C(CCc1ccccc1)N1CCN(c2ccc(O)cc2)CC1,3600 nM,270 nM,100 nM,270 nM,5,93%,IC50 [1]: > 30000 nM
O=C(Nc1nnn[nH]1)c1cc(-c2ccccc2)nc2ccccc12,–,13800 nM,5100 nM,1700 nM,–,–,–
O=C(CCc1ccccc1)N1CCN(c2ncc(O)cn2)CC1,–,–,–,–,–,–,IC50 [5]: Not Active; IC50 [7]: Not Active; IC50 [14]: Not Active
O=C(C1CC1)N1CCN(c2ccc(O)cn2)CC1,–,–,–,–,–,10%,inhibition [12]: 14%; inhibition at 1 µM [13]: 0%
O=C(COc1ccccc1)N1CCN(c2ccc(O)cc2)CC1,–,630 nM,130 nM,390 nM,5,55%,–
O=C(Cc1ccccc1)N1CCN(c2ccc(O)nn2)CC1,–,–,–,–,–,–,IC50 [5]: Not Active; IC50 [7]: Not Active; IC50 [14]: Not Active
O=C(CCc1cc2ccccc2s1)N1CCN(c2ccc(O)cn2)CC1,–,1200 nM,240 nM,1630 nM,5,46%,–
O=C(Nc1ccccc1)N1CCN(c2ccc(O)cc2)CC1,31000 nM,200 nM,110 nM,220 nM,5,28%,–
CC(C)CN1CCN(c2ccc(O)cn2)CC1,–,–,–,–,–,6%,inhibition [12]: 0%; inhibition at 1 µM [13]: 0%
CC(=O)N1CCN(c2ccc(O)cn2)CC1,–,–,–,–,–,0%,inhibition [12]: 23%; inhibition at 1 µM [13]: 0%
O=C(CCc1cccs1)N1CCN(c2ccc(O)cn2)CC1,4600 nM,1320 nM,160 nM,1290 nM,5,76%,IC50 [1]: 25000 nM
O=C1CC(N2CCN(c3ccc(O)cc3)CC2)C(=O)N1c1ccccc1 (stereo unspecified),–,220 nM,150 nM,200 nM,5,0%,–
Oc1ccc(N2CCN(CC3CC3)CC2)nc1,–,–,–,–,–,0%,inhibition [12]: 0%; inhibition at 1 µM [13]: 0%
O=C(Cc1ccccc1)N1CCN(c2ccc(O)nc2)CC1,–,–,–,–,–,–,IC50 [5]: Not Active; IC50 [7]: Not Active; IC50 [14]: Not Active

# Source: ChEMBL document CHEMBL5223163, “In the Quest for Potent and Selective Malic Enzyme 3 Inhibitors for the Treatment of Pancreatic Ductal Adenocarcinoma” (ACS Med Chem Lett, 2023)
